Reference: article PMC9601193, “Intracellular Metabolomics Identifies Efflux Transporter Inhibitors in a Routine Caco-2 Cell Permeability Assay—Biological Implications” (Cells, 2022)

Legend:
Pgp [1] = target: T1, Pgp (Homo sapiens, UniProt P08183); experiment: Caco-2 bidirectional transport of Pgp probe indinavir with/without inhibitor or in Pgp KO cells; format: cell-based; conditions: for specificity of Pgp inhibition among Pgp, BCRP and MRP2 (functional experiments): zosuquidar 10 µM, valspodar 50 nM
T1 construct: express major uptake and efflux transporters on the apical and basal membranes, including the key efflux transporters Pgp, BCRP and MRP2; host or cells: Caco-2 (HTB-37); C2BBe1 clone WT/KO cells from SOLVO Biotechnology for the knockout comparisons
Method: (§1) The compounds were first added into either the apical or basolateral chamber in the absence or presence of the relevant inhibitor. After 2 h incubation with the compounds, the samples from the apical and basolateral chamber were collected.
(§2) For Pgp and BCRP functional analysis, a 75 µL aliquot of the samples was collected from both the donor and acceptor compartments and transferred to a new 96-well microplate (V bottom) containing 75 µL of methanol. 10 µL from the mixture was collected and transferred to a new plate containing 90 µL of 50:50 methanol/water. The concentration of probe substrates in the samples was then quantified using LC-MS.
The flow rate was 0.6 mL/min, and the total run time was 3.5 min. The sample injection volume was 2 μL. Sample data were acquired using Analyst software.
(§3) The apparent permeability (Papp) of the substrate was calculated as follows: • Papp = (dQ/dt)/(C0 × Vr A) • dQ/dt = slope of the linear portion of the permeated amount versus time curve (µmol/l/s) • A = effective surface area of the Transwell insert (0.11 cm^2) • C0 = initial concentration of the substrate (µmol/L) • Vr = the volume of the receiver chamber (mL).
(§4) The efflux ratio was calculated as follows: • Papp (B to A)/Papp (A to B)
(§5) Pgp, BCRP and MRP2 knockout (stable) Caco-2 cells (C2BBe1) were kindly provided by SOLVO Biotechnology (Szeged, Hungary). The individual transporters were knocked out using zinc finger nuclease technology. The knockout cell lines were cultured for 21 days except BCRP KO, which was grown for 25 days in a 96-well format. Assay conditions were in accordance with the Caco-2 assay from our lab. Transport analysis was performed according to the protocol described above. After transport experiments, metabolites were extracted from Caco-2 cells and analyzed according to the protocols described below.

MRP2 [2] = target: T2, MRP2 (Homo sapiens, UniProt Q92887); experiment: Caco-2 efflux of MRP2 probe CDCF (fluorescence) with/without inhibitor or in MRP2 KO cells; format: cell-based; conditions: for specificity of MRP2 inhibitors (functional assessment, Supplementary Table S1): Caco-2
T2 construct: express major uptake and efflux transporters on the apical and basal membranes, including the key efflux transporters Pgp, BCRP and MRP2; host or cells: Caco-2 (HTB-37); C2BBe1 clone WT/KO cells from SOLVO Biotechnology for the knockout comparisons
Method: as §1
For MRP2 functional analysis, CDCF-DA (non-fluorescent diacetate), was added on the apical or basal chamber which diffuses into the cells and is converted into fluorescent CDCF (MRP2 substrate) by intracellular esterases. Efflux of the fluorescent CDCF was monitored by transferring 75 μL of samples from both the donor and acceptor compartments to a clear-bottomed black 96-well plate. The CDCF fluorescence was then measured on the plate reader with 485 (exc)/528 (em) nm wavelength.
as §3, §4, §5

MRP2 [3] = target: T2, MRP2; experiment: Intracellular LC-MS metabolomic signature and inhibition score for MRP2 in Caco-2 cells; format: cell-based
Method: (§6) Samples were dried using a nitrogen evaporator.
(§7) The sample injection volume was 2 μL. Sample data were acquired using Analyst software. All the samples were randomized to avoid analytical bias.

MTHFR = experiment: Protein expression by Simple Western (WES/JESS) in Caco-2 cells: MTHFR; format: cell-based, human; conditions: 24 h; zosuquidar 5 µM, Ko143 10 µM, MK571 200 µM; normalized to vinculin
Method: (§8) Cells were grown in a 6-well plate for 48 h and in a transwell for 10 days. Cells in the 6-well plates were incubated with inhibitors for 24 h and the cells in the transwell plate were incubated with inhibitors for 2 h to replicate metabolic effects. Protein extraction was performed once the cells were 90% confluent. Lysis buffer solution was prepared by adding 200 µL of phosphatase inhibitor cocktail 2 and 3 (Sigma-Aldrich, Dorset, UK), 100 µL of 100 mM PMSF protease inhibitor and 1 mL of CST lysis buffer (Cell Signaling Technology, Danvers, MA, USA) to 8.5 mls of deionized water. In the 6-well plate, cells were washed twice with ice-cold PBS, lysed with 500 μL of cold lysis buffer and transferred to Eppendorf tubes. The KO cells were lysed immediately after being taken out of the liquid nitrogen stock. […] The total protein concentration of the lysate was determined using Direct Detect™ infrared (IR)-based quantification system. […]
(§9) Different loading controls were used, depending on molecular weight and relative intensities of signal, and conditions were optimized accordingly. Protein samples were analyzed on a JESS/WES® (Simple Western system, Bio-Techne, Abingdon, UK) according to the manufacturer’s instructions (Protein Simple, Bio-Techne, Abingdon, UK) using a 12–230 kDa separation module. […]

thymidylate synthase = experiment: Protein expression by Simple Western (WES/JESS) in Caco-2 cells: thymidylate synthase; format: cell-based, human; conditions: 24 h incubation; zosuquidar 5 µM, MK571 200 µM
Method: as §8, §9

[4] = tested on: Adenosylhomocysteinase (AHCY); experiment: Protein expression by Simple Western (WES/JESS) in Caco-2 cells: AHCY; format: cell-based, human; conditions: 2 and 24 h incubation; MK571 200 µM
Method: as §8, §9

[5] = tested on: Serine Hydroxymethyltransferase 1 (SHMT1); experiment: Protein expression by Simple Western (WES/JESS) in Caco-2 cells: SHMT1; format: cell-based, human; conditions: 2 and 24 h; MK571 200 µM
Method: as §8, §9

BCRP [6] = target: T3, BCRP (Homo sapiens, UniProt Q9UNQ0); experiment: Caco-2 bidirectional transport of BCRP probe estrone-3-sulfate with/without inhibitor or in BCRP KO cells; format: cell-based; set-up: express major uptake and efflux transporters on the apical and basal membranes, including the key efflux transporters Pgp, BCRP and MRP2; host or cells: Caco-2 (HTB-37); C2BBe1 clone WT/KO cells from SOLVO Biotechnology for the knockout comparisons; conditions: C2BBe1 Caco-2 BCRP KO vs WT
T3 sequence (Q9UNQ0 1-655): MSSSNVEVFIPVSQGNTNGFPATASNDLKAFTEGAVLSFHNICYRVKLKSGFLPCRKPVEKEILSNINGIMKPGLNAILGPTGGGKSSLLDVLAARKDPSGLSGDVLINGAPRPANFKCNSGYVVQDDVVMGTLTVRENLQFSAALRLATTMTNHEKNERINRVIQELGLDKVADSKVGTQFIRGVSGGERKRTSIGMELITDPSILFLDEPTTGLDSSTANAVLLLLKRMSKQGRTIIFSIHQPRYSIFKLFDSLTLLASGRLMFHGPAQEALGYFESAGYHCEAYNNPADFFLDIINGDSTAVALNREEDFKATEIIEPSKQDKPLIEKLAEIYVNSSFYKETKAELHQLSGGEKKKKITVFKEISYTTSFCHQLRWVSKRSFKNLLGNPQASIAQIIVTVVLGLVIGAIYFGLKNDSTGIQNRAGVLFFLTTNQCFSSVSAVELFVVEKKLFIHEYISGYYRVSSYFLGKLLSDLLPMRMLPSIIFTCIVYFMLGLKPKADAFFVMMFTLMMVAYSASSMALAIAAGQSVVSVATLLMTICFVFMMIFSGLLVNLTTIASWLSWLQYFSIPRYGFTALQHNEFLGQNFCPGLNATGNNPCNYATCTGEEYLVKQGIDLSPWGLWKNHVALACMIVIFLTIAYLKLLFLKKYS
Method: as §1, §2
The flow rate was 0.6 mL/min, and the total run time was 3.5 min. […]
as §3, §4
Pgp, BCRP and MRP2 knockout (stable) Caco-2 cells (C2BBe1) were kindly provided by SOLVO Biotechnology (Szeged, Hungary). […] After transport experiments, metabolites were extracted from Caco-2 cells and analyzed according to the protocols described below.

Pgp [7] = target: T1, Pgp; experiment: Intracellular LC-MS metabolomic signature and inhibition score for Pgp in Caco-2 cells; format: cell-based; conditions: some of the metabolites
Method: as §6, §7
For example, for Pgp, the percentage changes in Pgp signature metabolites with Pgp inhibition were summed to calculate a Pgp inhibition score for that inhibitor.

methionine synthase = experiment: Protein expression by Simple Western (WES/JESS) in Caco-2 cells: methionine synthase; format: cell-based, human; conditions: 2 and 24 h incubation; zosuquidar 5 µM
Method: as §8, §9

[8] = set-up: method as in PMID 33312947; conditions: trials testing efficacy against multidrug resistance; cited from earlier work
BCRP [9] = target: T3, BCRP; experiment: Intracellular LC-MS metabolomic signature and inhibition score for BCRP in Caco-2 cells; conditions: Ko143 10 µM, Fumitremorgin C 5 µM, novobiocin 30 µM; Caco-2, 2 h
Method: First, 2 × 10^4 cells/well were seeded on a 96 Transwell™ thin film polycarbonate membrane (0.4 µM pore size). Plates were incubated at 37 °C, 5% CO2 and 95% humidity. The cells were grown for 10 days and then treated on day 10. The monolayer integrity was checked prior to the experiment by measuring the transepithelial electrical resistance (TEER) using a TEER electrode. All TEER values ranged between 2000 and 4000 ohms∗cm^2, values greater than 1000 ohms∗cm^2 were used as an indicator of an intact monolayer.
MK571 (200 µM, n = 3) and Benzbromarone (66.7 µM, n= 1) were used to inhibit MRP2 activity. The compounds were diluted to the final concentration in HBSS (pH 7.4); 1% DMSO in HBSS was used as a control. Before treatment, media was removed, and the cells were washed twice with HBSS. […]
MultiQuant® software (v 3.0.3) was used for peak integration and the peak area for each metabolite was then exported. All data sets were normalized using the total sum of the quantified analyte area. The data were analyzed by SIMCA® 15/17 for multivariate analysis including Orthogonal Partial Least Squares–Discriminant Analysis (OPLS-DA). […]
The percentage difference for the normalized area of each (transporter) signature metabolite was calculated using the following equation:100 × (treated—control)/control

T2 sequence (Q92887 whole entry): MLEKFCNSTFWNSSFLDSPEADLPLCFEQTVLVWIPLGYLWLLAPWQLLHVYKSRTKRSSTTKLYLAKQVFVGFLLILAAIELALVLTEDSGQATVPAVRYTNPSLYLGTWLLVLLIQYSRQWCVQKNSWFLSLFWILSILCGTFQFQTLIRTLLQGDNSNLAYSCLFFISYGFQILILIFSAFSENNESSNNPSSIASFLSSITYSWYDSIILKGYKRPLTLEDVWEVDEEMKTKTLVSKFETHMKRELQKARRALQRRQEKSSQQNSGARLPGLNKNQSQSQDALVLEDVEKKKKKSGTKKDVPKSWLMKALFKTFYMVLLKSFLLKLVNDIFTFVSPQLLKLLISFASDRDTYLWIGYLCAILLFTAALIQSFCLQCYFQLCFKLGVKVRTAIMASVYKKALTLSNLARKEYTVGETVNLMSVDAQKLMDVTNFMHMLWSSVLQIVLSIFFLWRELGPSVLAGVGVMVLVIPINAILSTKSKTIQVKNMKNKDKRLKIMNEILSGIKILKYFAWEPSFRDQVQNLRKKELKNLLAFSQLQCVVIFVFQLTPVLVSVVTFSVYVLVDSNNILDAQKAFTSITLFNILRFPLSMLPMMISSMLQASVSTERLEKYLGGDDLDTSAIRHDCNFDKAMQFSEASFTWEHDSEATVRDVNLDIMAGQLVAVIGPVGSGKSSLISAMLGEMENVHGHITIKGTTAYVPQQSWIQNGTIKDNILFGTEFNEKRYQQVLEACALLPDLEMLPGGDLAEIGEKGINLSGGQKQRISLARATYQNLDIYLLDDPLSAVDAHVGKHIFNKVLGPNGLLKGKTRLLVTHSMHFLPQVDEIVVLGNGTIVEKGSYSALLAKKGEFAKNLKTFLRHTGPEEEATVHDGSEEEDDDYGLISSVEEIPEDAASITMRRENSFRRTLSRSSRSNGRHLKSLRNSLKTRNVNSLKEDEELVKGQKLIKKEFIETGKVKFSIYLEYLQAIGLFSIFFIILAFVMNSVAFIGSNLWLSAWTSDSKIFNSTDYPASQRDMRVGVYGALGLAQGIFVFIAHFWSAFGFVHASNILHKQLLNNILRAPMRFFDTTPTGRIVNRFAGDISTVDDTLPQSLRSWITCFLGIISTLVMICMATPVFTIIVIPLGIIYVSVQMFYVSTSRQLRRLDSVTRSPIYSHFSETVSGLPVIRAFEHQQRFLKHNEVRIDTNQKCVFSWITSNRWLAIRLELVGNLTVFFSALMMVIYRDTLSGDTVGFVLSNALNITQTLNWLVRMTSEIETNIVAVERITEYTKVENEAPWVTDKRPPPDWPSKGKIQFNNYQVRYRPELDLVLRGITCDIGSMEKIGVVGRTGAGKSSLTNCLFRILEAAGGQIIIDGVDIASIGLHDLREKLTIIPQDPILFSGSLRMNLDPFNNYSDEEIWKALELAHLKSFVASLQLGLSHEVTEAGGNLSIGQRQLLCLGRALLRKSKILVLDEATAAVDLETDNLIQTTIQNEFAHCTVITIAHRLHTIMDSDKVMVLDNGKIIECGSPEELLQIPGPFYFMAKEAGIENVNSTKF
T1 sequence (P08183 whole entry): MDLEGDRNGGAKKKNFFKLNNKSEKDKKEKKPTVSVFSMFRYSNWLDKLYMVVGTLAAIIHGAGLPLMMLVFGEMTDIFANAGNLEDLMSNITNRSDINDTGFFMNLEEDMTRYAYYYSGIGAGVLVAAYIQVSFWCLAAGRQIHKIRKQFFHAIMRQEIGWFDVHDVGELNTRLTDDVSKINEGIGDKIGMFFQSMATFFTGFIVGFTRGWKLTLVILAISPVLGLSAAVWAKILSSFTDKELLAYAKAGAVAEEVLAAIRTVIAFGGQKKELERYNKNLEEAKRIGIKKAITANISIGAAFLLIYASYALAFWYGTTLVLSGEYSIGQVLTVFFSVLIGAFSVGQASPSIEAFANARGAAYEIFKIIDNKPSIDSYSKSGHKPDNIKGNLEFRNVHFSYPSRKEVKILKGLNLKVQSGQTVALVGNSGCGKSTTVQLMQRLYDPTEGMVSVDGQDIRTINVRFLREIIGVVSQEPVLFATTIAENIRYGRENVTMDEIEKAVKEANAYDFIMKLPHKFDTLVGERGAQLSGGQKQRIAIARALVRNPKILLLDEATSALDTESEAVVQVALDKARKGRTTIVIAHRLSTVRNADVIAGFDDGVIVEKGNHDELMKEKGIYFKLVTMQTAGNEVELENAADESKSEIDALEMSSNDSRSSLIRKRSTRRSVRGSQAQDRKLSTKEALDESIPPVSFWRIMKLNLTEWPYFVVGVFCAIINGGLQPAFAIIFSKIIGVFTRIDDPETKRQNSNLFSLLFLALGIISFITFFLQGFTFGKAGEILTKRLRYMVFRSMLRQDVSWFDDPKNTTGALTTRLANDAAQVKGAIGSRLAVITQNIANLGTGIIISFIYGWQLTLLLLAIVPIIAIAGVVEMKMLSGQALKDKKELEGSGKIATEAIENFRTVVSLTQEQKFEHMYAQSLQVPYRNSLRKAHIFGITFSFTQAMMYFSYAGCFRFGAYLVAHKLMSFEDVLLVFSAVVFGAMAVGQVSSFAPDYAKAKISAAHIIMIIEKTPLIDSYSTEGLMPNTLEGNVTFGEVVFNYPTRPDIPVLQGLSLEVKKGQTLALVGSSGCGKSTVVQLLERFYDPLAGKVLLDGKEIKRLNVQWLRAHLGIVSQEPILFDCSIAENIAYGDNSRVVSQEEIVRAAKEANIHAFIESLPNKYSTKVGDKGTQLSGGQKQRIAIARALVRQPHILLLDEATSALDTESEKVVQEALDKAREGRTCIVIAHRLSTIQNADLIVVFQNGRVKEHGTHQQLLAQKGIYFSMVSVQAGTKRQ

CN(C)CCCN1c2ccccc2Sc2ccc(Cl)cc21 [chlorpromazine]
Pgp inhibition compared to other additional inhibitors (Pgp [1]; validation inhibitors of Figure 5C): weaker interaction with Pgp

5(6)-carboxy-2′,7′-dichlorofluorescein [CDCF]
efflux ratio in MRP2 KO cells in comparison with wild type cells (MRP2 [2]; C2BBe1 Caco-2 MRP2 KO vs WT): reduced

C/C=C/C[C@@H](C)C(=O)[C@H]1C(=O)N[C@@H](C(C)C)C(=O)N(C)CC(=O)N(C)[C@@H](CC(C)C)C(=O)N[C@@H](C(C)C)C(=O)N(C)[C@@H](CC(C)C)C(=O)N[C@@H](C)C(=O)N[C@H](C)C(=O)N(C)[C@@H](CC(C)C)C(=O)N(C)[C@@H](CC(C)C)C(=O)N(C)[C@@H](C(C)C)C(=O)N1C [valspodar]
specificity of Pgp inhibition among Pgp, BCRP and MRP2 (functional experiments) (Pgp [1]): specifically inhibit Pgp

CN(C)C(=O)CCSC(SCCC(=O)O)c1cccc(/C=C/c2ccc3ccc(Cl)cc3n2)c1 (stereo not drawn) [MK571]
specificity of MRP2 inhibitors (functional assessment, Supplementary Table S1) (MRP2 [2]): lack of specificity
CDCF efflux in presence of inhibitor (MRP2 [2]; Caco-2 monolayer, CDCF 10 µM, 2 h): markedly reduced
change of MRP2 signature metabolites with increasing inhibitor concentration (MRP2 [3]): concentration-dependent change
MTHFR protein expression (MTHFR): significant decrease
thymidylate synthase expression (thymidylate synthase): reduced
Adenosylhomocysteinase (AHCY) protein levels [4]: significantly reduced
Serine Hydroxymethyltransferase 1 (SHMT1) expression [5]: significant reduction

CCc1oc2ccccc2c1C(=O)c1cc(Br)c(O)c(Br)c1 [benzbromarone, Benzbromarone]
specificity of MRP2 inhibitors (functional assessment, Supplementary Table S1) (MRP2 [2]): lack of specificity

C[C@]12CC[C@@H]3c4ccc(OS(=O)(=O)O)cc4CC[C@H]3[C@@H]1CCC2=O [estrone-3-sulfate]
efflux ratio in BCRP KO cells in comparison with wild type cells (BCRP [6]): reduced

O[C@@H](COc1cccc2ncccc12)CN1CCN([C@@H]2c3ccccc3[C@@H]3[C@H](c4ccccc42)C3(F)F)CC1 [zosuquidar]
transcellular transport of indinavir in presence of inhibitor (Pgp [1]; Caco-2 monolayer, indinavir 10 µM, 2 h): inhibited
specificity of Pgp inhibition among Pgp, BCRP and MRP2 (functional experiments) (Pgp [1]): specifically inhibit Pgp
change of Pgp signature metabolites with increasing inhibitor concentration (Pgp [7]): concentration dependent change
MTHFR protein expression (MTHFR): increase
thymidylate synthase expression (thymidylate synthase): reduced
methionine synthase expression (methionine synthase): increase
toxicity observed in clinical trials [8]: neurotoxicity

COc1ccc2c3c([nH]c2c1)[C@H](C=C(C)C)N1C(=O)[C@@H]2CCCN2C(=O)[C@@H]1C3 [Fumitremorgin C]
intracellular levels of glutamate, hypoxanthine and xanthine (BCRP [9]): decreased
intracellular pantothenate levels (BCRP [9]): increased
